Measurements from article PMC13110267, “Fair and Square: Design, Synthesis and Biological Evaluations of Squaric Acid Derivatives as Novel HDAC8 Inhibitors” (Chemmedchem, 2026).

What was measured:
[1] = target: T1, HDAC8 (Homo sapiens, UniProt Q9BY41); assay: HDAC8 fluorometric enzyme inhibition assay, purified recombinant enzyme, 10-point dose-response; assay type: biochemical; details: Table 1; purified recombinant HDAC8 10 nM; mean of three independent experiments; >35 µM = weak inhibitor
T1 construct: made in house
T1 sequence (Q9BY41 1-377): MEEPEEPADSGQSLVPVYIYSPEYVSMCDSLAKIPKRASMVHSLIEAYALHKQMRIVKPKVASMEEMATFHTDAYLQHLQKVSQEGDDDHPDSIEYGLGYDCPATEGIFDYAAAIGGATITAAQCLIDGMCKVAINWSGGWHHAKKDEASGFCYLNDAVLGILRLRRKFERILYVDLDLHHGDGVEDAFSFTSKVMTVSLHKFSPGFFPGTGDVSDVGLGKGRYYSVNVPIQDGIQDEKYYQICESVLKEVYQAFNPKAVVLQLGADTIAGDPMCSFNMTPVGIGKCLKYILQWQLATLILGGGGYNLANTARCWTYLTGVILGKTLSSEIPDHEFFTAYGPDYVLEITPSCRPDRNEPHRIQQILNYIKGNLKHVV
Procedure: (§1) Therefore, the first stage of biological evaluation focused on determining inhibitory concentration (IC50) values of the squaric acid derivatives against HDAC8 and HDAC4 using purified recombinant enzymes. Enzymatic inhibition was quantified using 10‐point dose–response assays, from which IC50 values were calculated (Table 1). HDAC8 and HDAC4 were employed at concentrations of 10 nM and 1 nM, respectively, while other zinc‐dependent HDAC isoenzymes were used at approximate concentrations of ∼1 nM, reflecting the purity of the commercially available preparations. […]
(§2) 1.3.1 HDAC Assay General Inform ation
(§3) The activity of HDAC1, HDAC4, HDAC6, HDAC8, and HDAC11 was determined using a fluorometric assay in black half-area 96-well microplates (Greiner Bio -One , Germany). HDAC1 (#50051) and HDAC 6 (#50006) were purchased from BPS Bioscience.
(§4) HDAC4, HDAC8 and HDAC11 were produced in house as previously described.7- 9 The enzymes were pre-incubated with serial dilutions of the compounds for 1 hour at 30 °C in either assay buffer (25 mM Tris-HCl, 75 mM KCl and 0.001% (v/v) Pluronic F -127, pH 8.0) or MAL buffer (137 m M NaCl, 50 mM Tris-HCl, 2.7 mM KCl, 1 mM MgCl₂, 0 .5 mg/ml bovine serum albumin (BSA), pH 8.0b) for HDAC11. The enzyme reaction was initiated by the addition of the following substrates: 20 µM Boc-L ys(T FA) -AMC for HDAC4 and HDAC8; 80 µM Boc-L ys(T FA) -AMC for HDAC11; and 50 µM Boc -Lys(Ac)-AMC for HDAC1 and HDAC6. After an incubation period of 60 minutes, the reaction was terminated by the addition of 1.7 µM 9,9,9-trifluoro-8-oxo-N -phenyl -nonanamide (SATFMK) for […]
(§5) HDAC6, and 1 µM 1,1-dimethyl -2-[5-(trifluoromethyl)pyrazin-2-yl]isoindoline -4-carbohydroxamic acid (FT895) for HDAC11. The deacetylated substrate was then cleaved into fluorescent 7-amino -4- methylcoumarin (AMC) by the addition of 0.42 mg/mL trypsin.
(§6) Measurements were performed using a PHERAstar FS fluorescence microplate reader (BMG LABTECH) with excitation at 360 nm and emission at 460 nm. The normalised enzyme activities were plotted against the respective ligand concentration and fitted with a four-parameter logistic function using GraphPad Prism 6 software.

[2] = target: T2, HDAC4 (Homo sapiens, UniProt P56524); assay: HDAC4 fluorometric enzyme inhibition assay, purified recombinant enzyme, 10-point dose-response; assay type: biochemical; details: Table 1; purified recombinant HDAC4 1 nM; mean of three independent experiments; >35 µM = weak inhibitor
T2 construct: made in house
Procedure: as §1, §2, §3, §4, §5, §6

T2 sequence (P56524 whole entry): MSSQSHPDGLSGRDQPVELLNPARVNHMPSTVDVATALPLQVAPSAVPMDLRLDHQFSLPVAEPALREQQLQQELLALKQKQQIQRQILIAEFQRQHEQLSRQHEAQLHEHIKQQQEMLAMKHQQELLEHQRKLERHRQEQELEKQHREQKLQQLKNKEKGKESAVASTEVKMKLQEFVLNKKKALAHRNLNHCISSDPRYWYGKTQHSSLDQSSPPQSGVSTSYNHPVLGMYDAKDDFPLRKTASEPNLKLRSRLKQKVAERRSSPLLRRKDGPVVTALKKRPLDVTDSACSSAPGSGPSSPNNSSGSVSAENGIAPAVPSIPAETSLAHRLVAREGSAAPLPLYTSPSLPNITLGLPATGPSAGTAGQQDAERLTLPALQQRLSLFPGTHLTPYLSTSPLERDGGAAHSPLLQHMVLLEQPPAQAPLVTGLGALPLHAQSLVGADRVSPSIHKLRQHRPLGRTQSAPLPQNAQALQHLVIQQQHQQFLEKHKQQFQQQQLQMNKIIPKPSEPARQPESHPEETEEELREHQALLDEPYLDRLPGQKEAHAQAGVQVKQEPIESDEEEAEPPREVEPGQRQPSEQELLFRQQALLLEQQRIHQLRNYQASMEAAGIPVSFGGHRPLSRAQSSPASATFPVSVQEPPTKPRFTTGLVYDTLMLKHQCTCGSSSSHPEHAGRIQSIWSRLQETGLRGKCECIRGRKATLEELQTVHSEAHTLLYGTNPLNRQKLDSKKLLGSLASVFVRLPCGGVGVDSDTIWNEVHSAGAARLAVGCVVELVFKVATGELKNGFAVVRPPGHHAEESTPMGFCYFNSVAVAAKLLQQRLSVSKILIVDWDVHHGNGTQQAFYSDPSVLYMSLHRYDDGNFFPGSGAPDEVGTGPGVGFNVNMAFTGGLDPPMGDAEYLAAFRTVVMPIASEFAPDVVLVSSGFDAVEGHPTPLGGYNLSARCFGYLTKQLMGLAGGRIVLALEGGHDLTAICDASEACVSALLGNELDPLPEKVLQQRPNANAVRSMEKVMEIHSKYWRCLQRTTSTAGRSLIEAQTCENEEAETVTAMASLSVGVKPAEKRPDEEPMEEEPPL

| Compound | IC50 [1] | IC50 [2] |
| --- | --- | --- |
| CCOc1c(Nc2cccc(O)c2)c(=O)c1=O [9 h] | > 35 µM | > 35 µM |
| CCOc1c(N(C)Cc2ccc(Br)cc2)c(=O)c1=O [10 h] | > 35 µM | > 35 µM |
| CCOc1c(N2CCS(=O)(=O)CC2)c(=O)c1=O [12 h] | > 35 µM | > 35 µM |
| CCOc1c(Nc2ccccc2)c(=O)c1=O [Compound 9a] | > 35 µM | > 35 µM |
| CCOc1c(Nc2cccc(Cl)c2)c(=O)c1=O [Compound 9c] | > 35 µM | > 35 µM |
| CCOc1c(Nc2ccc(Cl)cc2)c(=O)c1=O [Compound 9d] | > 35 µM | > 35 µM |
| CCOc1c(Nc2cccc(Br)c2)c(=O)c1=O [Compound 9e] | > 35 µM | > 35 µM |
| CCOc1c(Nc2ccc(Br)cc2)c(=O)c1=O [Compound 9f] | > 35 µM | > 35 µM |
| CCOc1c(Nc2ccccc2O)c(=O)c1=O [Compound 9g] | > 35 µM | > 35 µM |
| CCOc1c(Nc2ccc(O)cc2)c(=O)c1=O [Compound 9i] | > 35 µM | > 35 µM |
| CCOc1c(Nc2ccccc2OC)c(=O)c1=O [Compound 9j] | > 35 µM | > 35 µM |
| CCOc1c(Nc2cccc(OC)c2)c(=O)c1=O [Compound 9k] | > 35 µM | > 35 µM |
| CCOc1c(Nc2ccc(OC)cc2)c(=O)c1=O [Compound 9l] | > 35 µM | > 35 µM |
| CCOc1c(Nc2cccc(C(F)(F)F)c2)c(=O)c1=O [Compound 9m] | > 35 µM | > 35 µM |
| CCOc1c(Nc2ccc(C(F)(F)F)cc2)c(=O)c1=O [Compound 9n] | > 35 µM | > 35 µM |
| CCOc1c(Nc2ccccc2C)c(=O)c1=O [Compound 9o] | > 35 µM | > 35 µM |
| CCOc1c(Nc2cccc(C)c2)c(=O)c1=O [Compound 9p] | > 35 µM | > 35 µM |
| CCOc1c(Nc2ccc(C)cc2)c(=O)c1=O [Compound 9q] | > 35 µM | > 35 µM |
| CCOc1c(Nc2cccc(C(=O)O)c2)c(=O)c1=O [Compound 9r] | > 35 µM | > 35 µM |
| CCOc1c(N(C)c2ccc(Br)cc2)c(=O)c1=O [Compound 9s] | > 35 µM | > 35 µM |
| CCOc1c(NCc2ccccc2)c(=O)c1=O [Compound 10a] | > 35 µM | > 35 µM |
| CCOc1c(NCc2ccccc2Cl)c(=O)c1=O [Compound 10b] | > 35 µM | > 35 µM |
| CCOc1c(NCc2cccc(Cl)c2)c(=O)c1=O [Compound 10c] | > 35 µM | > 35 µM |
| CCOc1c(NCc2ccc(Cl)cc2)c(=O)c1=O [Compound 10d] | > 35 µM | > 35 µM |
| CCOc1c(NCc2ccccc2Br)c(=O)c1=O [Compound 10e] | > 35 µM | > 35 µM |
| CCOc1c(NCc2cccc(Br)c2)c(=O)c1=O [Compound 10f] | > 35 µM | > 35 µM |
| CCOc1c(NCc2ccc(Br)cc2)c(=O)c1=O [Compound 10g] | > 35 µM | > 35 µM |
| CCOc1c(N(C(C)C)C(C)C)c(=O)c1=O [Compound 11] | > 35 µM | > 35 µM |
| O=c1c(N(Cc2ccccc2)c2ccc(Br)cc2)c(N(Cc2ccccc2)c2ccc(Br)cc2)c1=O [Compound 15] | > 35 µM | > 35 µM |

The next lines start with the values.

| IC50 [1] | IC50 [2] | Compound |
| --- | --- | --- |
| > 35 µM | > 35 µM | CCOc1c(N2CCC2)c(=O)c1=O [Compound 12a] |
| > 35 µM | > 35 µM | CCOc1c(N2CCCC2)c(=O)c1=O [Compound 12b] |
| > 35 µM | > 35 µM | CCOc1c(N2CCCCC2)c(=O)c1=O [Compound 12c] |
| > 35 µM | > 35 µM | CCOc1c(N2CCCCCC2)c(=O)c1=O [Compound 12d] |
| > 35 µM | > 35 µM | CCOc1c(N2CCOCC2)c(=O)c1=O [Compound 12e] |
| > 35 µM | > 35 µM | CCOc1c(N2C[C@@H](C)O[C@@H](C)C2)c(=O)c1=O [Compound 12f] |
| > 35 µM | > 35 µM | CCOc1c(N2CCSCC2)c(=O)c1=O [Compound 12g] |
| > 35 µM | > 35 µM | CCOc1c(N2CCSC2)c(=O)c1=O [Compound 12i] |
| > 35 µM | > 35 µM | CCOc1c(N2CCN(C(=O)OC(C)(C)C)CC2)c(=O)c1=O [Compound 12j] |
| > 35 µM | > 35 µM | CCOc1c(N2CCCc3ccc(Br)cc32)c(=O)c1=O [Compound 12k] |
| > 35 µM | 14 ± 2 µM | O=c1c(Nc2ccccc2)c(Nc2ccccc2)c1=O [Compound 13a] |
| > 35 µM | > 35 µM | CN(c1ccccc1)c1c(N(C)c2ccccc2)c(=O)c1=O [Compound 14a] |
| > 35 µM | > 35 µM | CN(c1ccc(Br)cc1)c1c(N(C)c2ccc(Br)cc2)c(=O)c1=O [Compound 14c] |
| > 35 µM | > 35 µM | O=c1c(N2CCOCC2)c(N2CCOCC2)c1=O [Compound 16a] |
| > 35 µM | > 35 µM | O=c1c(N2CCCCC2)c(N2CCCCC2)c1=O [Compound 16b] |
| > 35 µM | > 35 µM | CC(C)N1CCN(C(C)C)c2c1c(=O)c2=O [Compound 17a] |
| > 35 µM | > 35 µM | CN1CCCN(C)c2c1c(=O)c2=O [Compound 17b] |
